Experimental data published in patent US20040018235A1, “Controlled release pharmaceutical composition” (KOWA CO., LTD, priority 2002, published 2004).

Assay: Absorption sites of pitavastatin in rat (in situ loop test)
Assay type: in vivo

O=C(O)C[C@H](O)C[C@H](O)/C=C/c1c(C2CC2)nc2ccccc2c1-c1ccc(F)cc1 [pitavastatin, (+)-(3R,5S,6E)-7-[2-cyclopropyl-4-(4-fluorophenyl)-3-quinolyl]-3,5-dihydroxy-6-heptenoic acid]
Absorption percentage (duodenum, 0.5 h): 65.9 ± 2.1%
Absorption percentage (duodenum, 1 h): 60.3 ± 10.2%
Absorption percentage (large intestine, 0.5 h): 34.4 ± 3.7%
Absorption percentage (large intestine, 1 h): 51.6 ± 6.7%
Percentage of absorption in the small intestine relative to that in the duodenum (see Table 1): about one-third
Absorption percentage (small intestine, 0.5 h): 23.1 ± 3.8%
Absorption percentage (small intestine, 1 h): 21.3 ± 3.0%
Absorption percentage (stomach, 0.5 h): 8.6 ± 1.1%
Absorption percentage (stomach, 1 h): 14.4 ± 1.6%
